This note sets out measurements from patent US9732087B2, “Diamino-pyridine, pyrimidine, and pyridazine modulators of the histamine H4 receptor” (JANSSEN PHARMACEUTICA NV, priority 2008, dated 2017).

Molecules are shown by their SMILES.

Sequence of human H4 receptor (Q9H3N8 whole entry): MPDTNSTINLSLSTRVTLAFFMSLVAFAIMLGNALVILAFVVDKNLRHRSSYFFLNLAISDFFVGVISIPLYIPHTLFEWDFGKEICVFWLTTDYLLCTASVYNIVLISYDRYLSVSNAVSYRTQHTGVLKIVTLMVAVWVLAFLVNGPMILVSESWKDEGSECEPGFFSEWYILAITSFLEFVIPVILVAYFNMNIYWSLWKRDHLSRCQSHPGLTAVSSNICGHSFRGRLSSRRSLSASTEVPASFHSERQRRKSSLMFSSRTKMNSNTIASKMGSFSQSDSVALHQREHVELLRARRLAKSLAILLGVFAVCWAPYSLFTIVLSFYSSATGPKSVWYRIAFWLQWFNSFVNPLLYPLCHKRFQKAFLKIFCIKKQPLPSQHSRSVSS

In this assay the target is human H4 receptor (Homo sapiens (Human), UniProt Q9H3N8). Briefly: Binding assay on recombinant human histamine H4 receptor ([3H]histamine competition, SK-N-MC cell membranes). Particulars: membranes harvested with cell harvester; [3H]histamine 10 nM; average of results; read-out: Cell Harvester Ki. The essentials:
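Scintillation counting of filter-bound [3H]histamine after rapid harvesting on 0.5% PEI-treated GF/C filters with ice-cold Tris/EDTA washes. Receptor source: 30,000 g membrane pellets of SK-N-MC cells stably or transiently expressing human H4. Values shown as '>' are the top concentration tested.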
Take `N[C@@H]1CCN(c2ccnc(NCc3ccccc3)n2)C1` [Example 179, 4-[(3R)-3-Aminopyrrolidin-1-yl]-N-benzylpyrimidin-2-amine]: the Ki was determined as 788 nM.

Turning to `CN[C@@H]1CCN(c2ccnc(N[C@H](C)c3ccccc3)n2)C1` [Example 180, 4-[(3R)-3-(Methylamino)pyrrolidin-1-yl]-N-[(1R)-1-phenylethyl]pyrimidin-2-amine], the inhibition constant (Ki) came out at 116 nM.

For `N[C@@H]1CCN(c2ccnc(NC3CCCCC3)n2)C1` [Example 181, 4-[(3R)-3-Aminopyrrolidin-1-yl]-N-cyclohexylpyrimidin-2-amine], the inhibitory constant (Ki) was determined as 9.07 nM. The value for `CNC1CN(c2ccnc(NCCOC)n2)C1` [Example 182, N-(2-Methoxyethyl)-4-[3-(methylamino)azetidin-1-yl]pyrimidin-2-amine] was 45.4 nM; that for `CN[C@@H]1CCN(c2ccnc(NCCc3ccccc3)n2)C1` [Example 183, 4-[(3R)-3-(Methylamino)pyrrolidin-1-yl]-N-(2-phenylethyl)pyrimidin-2-amine] was 15.6 nM; that for `CN[C@@H]1CCN(c2ccnc(NC3CC4CC(C3C)C4(C)C)n2)C1` (stereo partly drawn) [Example 184, 4-[(3R)-3-(Methylamino)pyrrolidin-1-yl]-N-[(1S,2S,3S,5R)-2,6,6-trimethylbicyolo[3.1.1]hept-3-yl]pyrimidin-2-amine] was 1.58 nM.

On to `COc1ccc(CNc2nccc(N3CC[C@@H](N)C3)n2)cc1` [Example 185, 4-[(3R)-3-Aminopyrrolidin-1-yl]-N-(4-methoxybenzyl)pyrimidin-2-amine], for which the inhibition constant (Ki) was found to be 1730 nM. Take `Cc1ccc(CNc2nccc(N3CC[C@@H](N)C3)n2)cc1` [Example 186, 4-[(3R)-3-Aminopyrrolidin-1-yl]-N-(4-methylbenzyl)pyrimidin-2-amine]: the inhibition constant (Ki) amounted to 691 nM.

Regarding `c1cc(N2CCNCC2)nc(NCC2CCCC2)n1` [Example 187, N-(Cyclopentylmethyl)-4-piperazin-1-ylpyrimidin-2-amine], the inhibitory constant (Ki) stood at 71.5 nM.

Regarding `CN[C@@H]1CCN(c2ccnc(N[C@H]3C[C@H]4CC[C@]3(C)C4(C)C)n2)C1` [Example 190, 4-[(3R)-3-(Methylamino)pyrrolidin-1-yl]-N-[(1R,2S,4R)-1,7,7-trimethylbicyclo[2.2.1]hept-2-yl]pyrimidin-2-amine], the Ki came out at 1.68 nM. The figure for `CN[C@@H]1CCN(c2ccnc(NCC3CCCCC3)n2)C1` [Example 191, N-(Cyclohexylmethyl)-4-[(3R)-3-(methylamino)pyrrolidin-1-yl]pyrimidin-2-amine] is 3.58 nM; for `CN[C@@H]1CCN(c2ccnc(NC3CCCCC3)n2)C1` [Example 192, N-Cyclohexyl-4-[(3R)-3-(methylamino)pyrrolidin-1-yl]pyrimidin-2-amine] it is 2.42 nM; for `c1cc(N2CCCNCC2)nc(NC2CC3CCC2C3)n1` (stereo not drawn) [Example 195, N-Bicyclo[2.2.1]hept-2-yl-4-(1,4-diazepan-1-yl)pyrimidin-2-amine] it is 7.75 nM. The value for `CCCCNc1nccc(N2CC[C@H](N)C2)n1` [Example 196, 4-[(3S)-3-Aminopyrrolidin-1-yl]-N-butylpyrimidin-2-amine] was 224 nM; that for `N[C@@H]1CCN(c2ccnc(NCC3CCCCC3)n2)C1` [Example 197, 4-[(3R)-3-Aminopyrrolidin-1-yl]-N-(cyclohexylmethyl)pyrimidin-2-amine] was 17.3 nM. The figure for `CC(C)CNc1nccc(N2CC[C@H](N)C2)n1` [Example 198, 4-[(3S)-3-Aminopyrrolidin-1-yl]-N-(2-methylpropyl)pyrimidin-2-amine] is 55 nM; for `N[C@H]1CCN(c2ccnc(NCc3ccc(F)cc3)n2)C1` [Example 199, 4-[(3S)-3-Aminopyrrolidin-1-yl]-N-(4-fluorobenzyl)pyrimidin-2-amine] it is 2300 nM.

As for `CN[C@H]1CCN(c2ccnc(NCc3ccccn3)n2)C1` [Example 200, 4-[(3S)-3-(Methylamino)pyrrolidin-1-yl]-N-(pyridin-2-ylmethyl)pyrimidin-2-amine], the Ki came out at 860 nM.
